Here are results for ten molecules from patent US12421253B2 (Mirati Therapeutics, Inc., priority 2020, dated 2025).

The structures appear in SMILES notation.

In one experiment the target is KRas^Q61H (Homo sapiens, UniProt P01116, Q61H). Put plainly: biochemical.
Another experiment has as its target T1, KRas^G12S (Homo sapiens, UniProt P01116, G12S).
T1 construct: […]; biotin (biotinylated); purchased Accelegan Inc
Put plainly: KRas binding assay (TR-FRET displacement of Cy5 labelled tracer).

The target in a further experiment is KRas^G13D (Homo sapiens, UniProt P01116, G13D). Description: biochemical.
In a further experiment the target is T2, KRas^G12R (Homo sapiens, UniProt P01116, G12R).
T2 construct: […]; biotin (biotinylated); purchased Accelegan Inc
Description: KRas binding assay (TR-FRET displacement of Cy5 labelled tracer).

A further experiment deals with T3, KRas^G12A (Homo sapiens, UniProt P01116, G12A).
T3 construct: […]; biotin (biotinylated); purchased Accelegan Inc
Described as above.

In the next experiment the target is T4, KRas^G12D (Homo sapiens, UniProt P01116, G12D).
T4 construct: […]; biotin (biotinylated); purchased Accelegan Inc
The description is as above.

A further experiment addresses T5, KRas^G12V (Homo sapiens, UniProt P01116, G12V).
T5 construct: […]; biotin (biotinylated); purchased Accelegan Inc
The description is as above.

In another experiment the target is KRas^G12C (Homo sapiens, UniProt P01116, G12C). Put plainly: biochemical.
In a further experiment the target is T6, KRas^WT (Homo sapiens, UniProt P01116).
T6 construct: […]; biotin (biotinylated); purchased Accelegan Inc
Description: KRas binding assay (TR-FRET displacement of Cy5 labelled tracer).

Sequence of KRas^G13D (P01116 1-169 isoform P01116-2 G13D): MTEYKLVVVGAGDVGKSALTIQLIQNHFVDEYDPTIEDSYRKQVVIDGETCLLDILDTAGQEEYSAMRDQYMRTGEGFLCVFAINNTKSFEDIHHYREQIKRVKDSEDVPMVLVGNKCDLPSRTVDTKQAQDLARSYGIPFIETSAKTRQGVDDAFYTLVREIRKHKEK
Sequence of KRas^G12C (P01116 1-169 isoform P01116-2 G12C): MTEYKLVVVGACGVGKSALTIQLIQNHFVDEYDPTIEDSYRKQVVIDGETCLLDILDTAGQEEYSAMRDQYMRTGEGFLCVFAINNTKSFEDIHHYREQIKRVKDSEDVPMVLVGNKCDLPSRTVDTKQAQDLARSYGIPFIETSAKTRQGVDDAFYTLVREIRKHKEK
T3 sequence (P01116 1-169 isoform P01116-2 G12A): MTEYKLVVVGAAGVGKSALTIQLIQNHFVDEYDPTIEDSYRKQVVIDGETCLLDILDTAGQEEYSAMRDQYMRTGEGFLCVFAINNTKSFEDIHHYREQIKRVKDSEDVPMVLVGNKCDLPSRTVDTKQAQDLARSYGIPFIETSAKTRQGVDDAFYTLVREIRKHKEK
T2 sequence (P01116 1-169 isoform P01116-2 G12R): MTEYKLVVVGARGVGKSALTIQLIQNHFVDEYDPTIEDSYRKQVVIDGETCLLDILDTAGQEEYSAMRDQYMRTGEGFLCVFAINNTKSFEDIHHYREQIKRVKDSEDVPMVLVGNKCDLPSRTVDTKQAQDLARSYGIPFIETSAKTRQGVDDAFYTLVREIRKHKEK
T6 sequence (P01116 1-169 isoform P01116-2): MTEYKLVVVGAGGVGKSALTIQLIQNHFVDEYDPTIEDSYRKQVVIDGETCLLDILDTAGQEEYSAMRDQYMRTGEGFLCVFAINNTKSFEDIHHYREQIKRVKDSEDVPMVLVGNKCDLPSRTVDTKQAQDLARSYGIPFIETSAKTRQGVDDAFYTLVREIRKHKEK
T4 sequence (P01116 1-169 isoform P01116-2 G12D): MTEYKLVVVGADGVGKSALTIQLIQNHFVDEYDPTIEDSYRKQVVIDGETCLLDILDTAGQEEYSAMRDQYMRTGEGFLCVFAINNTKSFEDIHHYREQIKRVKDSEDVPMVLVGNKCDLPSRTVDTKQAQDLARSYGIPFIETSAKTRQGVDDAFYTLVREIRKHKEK
T5 sequence (P01116 1-169 isoform P01116-2 G12V): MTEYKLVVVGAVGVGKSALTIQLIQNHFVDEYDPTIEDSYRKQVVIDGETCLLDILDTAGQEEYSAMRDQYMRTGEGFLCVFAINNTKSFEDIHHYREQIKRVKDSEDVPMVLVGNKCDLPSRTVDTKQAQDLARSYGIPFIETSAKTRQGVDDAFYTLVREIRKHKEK
Sequence of KRas^Q61H (P01116 1-169 isoform P01116-2 Q61H): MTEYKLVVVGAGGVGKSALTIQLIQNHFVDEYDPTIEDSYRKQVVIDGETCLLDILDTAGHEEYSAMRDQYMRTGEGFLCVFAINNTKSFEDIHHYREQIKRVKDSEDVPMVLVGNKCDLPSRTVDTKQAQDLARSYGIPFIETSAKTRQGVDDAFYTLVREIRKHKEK
T1 sequence (P01116 1-169 isoform P01116-2 G12S): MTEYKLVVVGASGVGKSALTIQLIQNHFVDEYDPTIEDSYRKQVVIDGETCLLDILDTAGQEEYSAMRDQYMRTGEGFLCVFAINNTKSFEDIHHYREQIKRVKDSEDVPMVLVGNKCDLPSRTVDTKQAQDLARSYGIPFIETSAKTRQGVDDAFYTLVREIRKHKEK
Description for KRas^G12A: (§1) The ability of a compound to bind to KRas was measured using a TR-FRET displacement assay. […] After a 60-minute incubation at room temperature, the reaction was measured using a BMG LABTECH CLARIO star Plus via TR-FRET. […] The POC values were fit to a 4-parameter IC50 equation and the IC50 value reported.
Description for KRas^G12C: as §1
Description for KRas^G12D: as §1
Description for KRas^G12R: as §1
Description for KRas^G12S: as §1
Description for KRas^G12V: as §1
Description for KRas^G13D: as §1
Description for KRas^Q61H: as §1
Description for KRas^WT: as §1

For the molecule `CCc1cccc2cccc(N3CCc4c(nc(OCC56CCCN5CCC6)nc4N4CCCN(C(N)=O)CC4)C3)c12` [Example 95, 4-(7-(8-ethylnaphthalen-1-yl)-2-((tetrahydro-1H-pyrrolizin-7a(5H)-yl)methoxy)-5,6,7,8-tetrahydropyrido[3,4-d]pyrimidin-4-yl)-1,4-diazepane-1-carboxamide], the IC50 at KRas^Q61H came to 0.343 µM; on KRas^G12S it was 0.953 µM; against KRas^G13D it was 0.254 µM; on KRas^G12R, 0.724 µM; at KRas^G12A it was 0.655 µM; at KRas^G12D, 4.7 µM. For the same molecule, the IC50 was 0.99 µM at KRas^G12V, 0.656 µM at KRas^G12C and 0.255 µM at KRas^WT.
For `CCc1cccc2cccc(N3CCc4c(nc(OCC56CCCN5CCC6)nc4N4CCCC(c5c[nH]cn5)C4)C3)c12` (stereo not drawn) [Example 116, 4-(3-(1H-imidazol-4-yl)piperidin-1-yl)-7-(8-ethylnaphthalen-1-yl)-2-((tetrahydro-1H-pyrrolizin-7a(5H)-yl)methoxy)-5,6,7,8-tetrahydropyrido[3,4-d]pyrimidine], the IC50 on KRas^Q61H worked out at 1.64 µM; on KRas^G12S, 1.49 µM; on KRas^G13D, 1.67 µM; on KRas^G12R, 0.462 µM; on KRas^G12A, 1.16 µM; at KRas^G12D, 3.3 µM. The IC50 came out at 1.79 µM at KRas^G12V, 1.11 µM against KRas^G12C and 2.1 µM at KRas^WT.
For the molecule `CCc1cccc2cccc(N3CCc4c(nc(OCC56CCCN5CCC6)nc4N4CCOCC(n5cccn5)C4)C3)c12` (stereo not drawn) [Example 9, 4-(7-(8-ethylnaphthalen-1-yl)-2-((tetrahydro-1H-pyrrolizin-7a(5H)-yl)methoxy)-5,6,7,8-tetrahydropyrido[3,4-d]pyrimidin-4-yl)-6-(1H-pyrazol-1-yl)-1,4-oxazepane], the IC50 on KRas^Q61H amounted to 0.076 µM; at KRas^G12S, 0.154 µM; against KRas^G13D, 0.066 µM; on KRas^G12R it was 0.168 µM; on KRas^G12A, 0.128 µM; on KRas^G12D, 0.192 µM. Besides, the IC50 at KRas^G12V was determined as 0.165 µM; against KRas^G12C it was 0.115 µM; on KRas^WT it was 0.054 µM.
With `CCc1cccc2cccc(N3CCc4c(nc(OCC56CCCN5CCC6)nc4N4CCCc5ncccc5C4)C3)c12` [Example 55, 6-(7-(8-ethylnaphthalen-1-yl)-2-((hexahydro-1H-pyrrolizin-7a-yl)methoxy)-5,6,7,8-tetrahydropyrido[3,4-d]pyrimidin-4-yl)-6,7,8,9-tetrahydro-5H-pyrido[3,2-c]azepine], the IC50 against KRas^Q61H stood at 4.55 µM; at KRas^G12S, 1.16 µM; against KRas^G13D, 3.86 µM; at KRas^G12R, 0.744 µM; at KRas^G12A, 2.08 µM; at KRas^G12D, 1.16 µM. The IC50 on KRas^G12V was 1.1 µM; at KRas^G12C, 0.893 µM; on KRas^WT, 2.9 µM.
As to `CCc1cccc2cccc(N3CCc4c(nc(OCC56CCCN5CCC6)nc4NCc4c5c(n[nH]c4=O)CCCC5)C3)c12` [Example 155, 4-(((7-(8-ethylnaphthalen-1-yl)-2-((tetrahydro-1H-pyrrolizin-7a(5H)-yl)methoxy)-5,6,7,8-tetrahydropyrido[3,4-d]pyrimidin-4-yl)amino)methyl)-5,6,7,8-tetrahydrocinnolin-3(2H)-one], the IC50 on KRas^Q61H turned out to be 4.67 µM; at KRas^G12S it was 3.4 µM; against KRas^G13D it was 4.86 µM; on KRas^G12R it was 4.92 µM; on KRas^G12A it was 1.86 µM; on KRas^G12D it was 22.4 µM. In addition, the IC50 was determined as 7.31 µM at KRas^G12V, 4.42 µM at KRas^G12C and 3.17 µM at KRas^WT.
As to `CCc1cccc2cccc(N3CCc4c(nc(OCC56CCCN5CCC6)nc4N4CCCn5nccc5C4)C3)c12` [Example 51, 4-(7,8-dihydro-4H-pyrazolo[1,5-a][1,4]diazepin-5(6H)-yl)-7-(8-ethylnaphthalen-1-yl)-2-((hexahydro-1H-pyrrolizin-7a-yl)methoxy)-5,6,7,8-tetrahydropyrido[3,4-d]pyrimidine], the IC50 against KRas^Q61H amounted to 1.93 µM; on KRas^G12S, 0.669 µM; at KRas^G13D, 2.03 µM; on KRas^G12R it was 0.492 µM; on KRas^G12A, 1.26 µM; at KRas^G12D, 0.309 µM. Moreover, the IC50 at KRas^G12V came to 0.652 µM; against KRas^G12C, 0.564 µM; on KRas^WT, 1.37 µM.
With `CCc1cccc2cccc(N3CCc4c(nc(OCC56CCCN5CCC6)nc4N4CCCC(c5nc(C)no5)C4)C3)c12` (stereo not drawn) [Example 162, 5-(1-(7-(8-ethylnaphthalen-1-yl)-2-((tetrahydro-1H-pyrrolizin-7a(5H)-yl)methoxy)-5,6,7,8-tetrahydropyrido[3,4-d]pyrimidin-4-yl)piperidin-3-yl)-3-methyl-1,2,4-oxadiazole], the IC50 on KRas^Q61H amounted to 3.98 µM; at KRas^G12S it was 3.43 µM; at KRas^G13D it was 3.41 µM; at KRas^G12R it was 2.79 µM; at KRas^G12A it was 5.22 µM; on KRas^G12D, 7.51 µM. Also, the IC50 on KRas^G12V was determined as 8.35 µM; on KRas^G12C, 3.79 µM; at KRas^WT, 4.08 µM.
Turning to `CCc1cccc2cccc(N3CCc4c(nc(OCC56CCCN5CCC6)nc4N4Cc5ccnn5CC(O)C4)C3)c12` (stereo not drawn) [Example 50, 5-(7-(8-ethylnaphthalen-1-yl)-2-((hexahydro-1H-pyrrolizin-7a-yl)methoxy)-5,6,7,8-tetrahydropyrido[3,4-d]pyrimidin-4-yl)-5,6,7,8-tetrahydro-4H-pyrazolo[1,5-a][1,4]diazepin-7-ol], the IC50 against KRas^Q61H was determined as 0.808 µM; on KRas^G12S it was 0.33 µM; at KRas^G13D it was 0.8 µM; at KRas^G12R it was 0.284 µM; on KRas^G12A it was 0.569 µM; on KRas^G12D, 0.219 µM. For the same molecule, the 50% inhibitory concentration (IC50) at KRas^G12V worked out at 0.342 µM; against KRas^G12C it was 0.299 µM; at KRas^WT, 0.613 µM.
Consider `CCc1cccc2cccc(N3CCc4c(nc(OCC56CCCN5CCC6)nc4N4CCCC(N5CC(C)CS5(=O)=O)C4)C3)c12` (stereo not drawn) [Example 83, 2-(1-(7-(8-ethylnaphthalen-1-yl)-2-((tetrahydro-1H-pyrrolizin-7a(5H)-yl)methoxy)-5,6,7,8-tetrahydropyrido[3,4-d]pyrimidin-4-yl)piperidin-3-yl)-4-methylisothiazolidine 1,1-dioxide], for which the IC50 against KRas^Q61H was determined as 0.189 µM; at KRas^G12S, 0.24 µM; at KRas^G13D, 0.139 µM; at KRas^G12R it was 0.311 µM; on KRas^G12A, 0.206 µM; on KRas^G12D it was 0.929 µM. The IC50 on KRas^G12V worked out at 0.427 µM; at KRas^G12C it was 0.19 µM; at KRas^WT it was 0.083 µM.
Turning to `CCc1cccc2cccc(N3CCc4c(nc(OCC56CCCN5CCC6)nc4N4CCCC(c5ccn[nH]5)C4)C3)c12` (stereo not drawn) [Example 115, 4-(3-(1H-pyrazol-5-yl)piperidin-1-yl)-7-(8-ethylnaphthalen-1-yl)-2-((tetrahydro-1H-pyrrolizin-7a(5H)-yl)methoxy)-5,6,7,8-tetrahydropyrido[3,4-d]pyrimidine], the 50% inhibitory concentration (IC50) is 1.21 µM at KRas^Q61H; 1.35 µM at KRas^G12S; 1.4 µM on KRas^G13D; 0.46 µM at KRas^G12R; 1.11 µM at KRas^G12A; 3.04 µM on KRas^G12D. For the same molecule, the IC50 at KRas^G12V stood at 1.81 µM; at KRas^G12C, 0.928 µM; at KRas^WT, 1.15 µM.
